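96-well plates; 48 h exposure; 5 concentrations. Endpoints by linear interpolation between flanking doses. Not reached: highest tested concentration assigned. At the GI50, growth is halved.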 Calls of active or inactive are those of the source. Rule as the data show it: active = GI50 up to about 1.1 µM and inactive = higher.

Holding throughout (assay): DTP human tumour cell line panel, 48 h
In assay [1] the test system is XF498.
The subject of assay [2] is DMS-273.
In assay [3] the test system is DLD-1.
Assay [4] relates to KM-20L2.
In assay [5] the test system is HOP-18.
Assay [6] deals with SNB-78.
The test system of assay [7] is LXFL 529.
In assay [8] the test system is DMS-114.
In assay [9] the test system is RXF 631.

As usually defined, the GI50 is the concentration at which growth is held to half of that of the control. As to `Nc1nc(O)c2c(ncn2CCO)n1`, the GI50 in assay [1], in assay [2], in assay [3], in assay [4], in assay [5] and in assay [6] was > 100 µM (inactive) each time. In addition, in assay [7], the GI50 was > 100 µM (inactive).

On to `Nc1ccn(C2CCC(CO)O2)c(=O)n1` (stereo unspecified), for which the GI50 was > 100 µM (inactive) in assay [1]; > 100 µM (inactive) in assay [2]; > 100 µM (inactive) in assay [3]; > 100 µM (inactive) in [4]; 98.9 µM (inactive) in assay [5]; > 65.6 µM (inactive) in assay [6]. The GI50 in assay [8] was > 100 µM (inactive).

For `NC1=NS(=O)(=O)Nc2nc(-c3ccccc3)c(-c3ccccc3)nc21`, the GI50 in [1], in [2], in assay [3], in assay [4], in assay [5] and in assay [6] was > 100 µM (inactive) in each case. For the same molecule, the GI50 in assay [7] is > 100 µM (inactive).

For `CCc1nc2c(O)ccc(O)c2nc1C`, the GI50 in assay [1] was 24.2 µM (inactive); in assay [2], 19.9 µM (inactive); in [3] it was 2.9 µM (inactive); in [4] it was 18.6 µM (inactive); in [5], 20.9 µM (inactive); in assay [9] it was 19.1 µM (inactive). For the same molecule, the GI50 in [6] was 27.8 µM (inactive); in [7] it was 4.97 µM (inactive); in assay [8] it was 18.2 µM (inactive).

In the case of `O=C1C(Cl)C(c2cc(Br)ccc2O)N1n1cnc2ccccc2c1=O` (stereo unspecified), the GI50 in assay [1] was 28.5 µM (inactive); in assay [2], 15.7 µM (inactive); in [3], 15.6 µM (inactive); in assay [4], 22.2 µM (inactive); in assay [5], 6.3 µM (inactive); in [6] it was 30.9 µM (inactive). The GI50 in assay [7] is 17.1 µM (inactive); in assay [8] it was 5.46 µM (inactive).

In the case of `Cc1cc(NCCCCCCCCNc2cc(C)nc3cc(N)ccc23)c2ccc(N)cc2n1`, the GI50 is 4.56 µM (inactive) in assay [2]; 16.9 µM (inactive) in assay [3]; 19 µM (inactive) in assay [4]; 11.3 µM (inactive) in assay [7]; 3.35 µM (inactive) in assay [8].

Consider `CC(C)(Br)C(=O)C(Br)Br`, for which the GI50 in assay [1] was 11.6 µM (inactive); in [2], 12.6 µM (inactive); in [3], 1.77 µM (inactive); in assay [4], 18 µM (inactive); in assay [9], 14 µM (inactive); in assay [6] it was 5.06 µM (inactive). Besides, the GI50 was 2.23 µM (inactive) in assay [7] and 5.36 µM (inactive) in assay [8].

`Fc1ccc(C2SCc3nc4ccccc4n32)c(F)c1` (stereo unspecified): the GI50 in assay [2] was 38 µM (inactive); in assay [3] it was 67.6 µM (inactive); in assay [4], > 100 µM (inactive); in assay [5] it was > 100 µM (inactive); in assay [9], 34.5 µM (inactive); in assay [6], 38.1 µM (inactive). In addition, the GI50 in assay [8] is 31.8 µM (inactive).

For the molecule `O=c1c2cccnc2ncn1CCN1CCCCC1`, the GI50 in [1], in assay [2], in assay [3], in [4], in assay [6] and in assay [7] was > 100 µM (inactive) throughout. The GI50 in [8] is > 100 µM (inactive).

As to `CC(C)(C)c1cc2c3c(c1)C(C(F)(F)F)(C(F)(F)F)O[Te]3(C)OC2(C(F)(F)F)C(F)(F)F`, the GI50 in assay [1], in [2], in assay [3], in assay [4], in [5] and in assay [6] was > 100 µM (inactive) in each case. Further, the GI50 in assay [7] and in assay [8] was > 100 µM (inactive) in each case.

For `Nc1nc2c(ncn2C2CCC(CO)O2)c(=O)n1C(=O)c1ccccc1` (stereo unspecified), the GI50 in [1], in assay [2], in [3], in assay [4], in assay [9] and in assay [7] was > 100 µM (inactive) each time. Further, the GI50 in assay [8] is > 100 µM (inactive).

Turning to `Cn1ccc(=NS(=O)(=O)c2ccccc2)cc1`, the GI50 was > 100 µM (inactive) in [1]; > 100 µM (inactive) in assay [2]; > 100 µM (inactive) in [3]; > 100 µM (inactive) in [4]; 85.3 µM (inactive) in assay [5]; > 100 µM (inactive) in [9]. The GI50 in assay [6], in assay [7] and in assay [8] was > 100 µM (inactive) each time.

On to `COC(=O)/C(C#N)=C1\CCc2ccccc21`, for which the GI50 in [1], in [2], in assay [3], in assay [4], in assay [7] and in assay [8] was > 100 µM (inactive) throughout.

Take `CCCCCCCCCC1C(C)c2c([nH]c3ccccc23)C2C(=O)N(c3ccccc3)C(=O)C21` (stereo unspecified): the GI50 in assay [1] was 11.2 µM (inactive); in assay [2], 12.5 µM (inactive); in [3], 14.9 µM (inactive); in [4] it was 12.1 µM (inactive); in assay [9], 3.05 µM (inactive); in assay [6], 21.4 µM (inactive). Also, the GI50 was 35.6 µM (inactive) in [7] and 14.7 µM (inactive) in [8].

For `Cc1ccc(S(=O)(=O)N2c3ccccc3[C@H]3CCC=C[C@H]32)cc1`, the GI50 in assay [1] was 8.65 µM (inactive); in [2] it was 3.66 µM (inactive); in assay [3] it was 13.3 µM (inactive); in assay [4], 3.18 µM (inactive); in assay [5], 59.3 µM (inactive); in assay [9], 10.8 µM (inactive). For the same molecule, the GI50 is 19.2 µM (inactive) in [6], 9.55 µM (inactive) in assay [7] and 3.12 µM (inactive) in assay [8].

With `CC1NS(=O)(=O)N(C)C1=O` (stereo unspecified), the GI50 in [1], in [2], in assay [3], in assay [9], in assay [6] and in assay [7] was > 100 µM (inactive) throughout. Moreover, the GI50 in assay [8] is > 100 µM (inactive).

With `CC(C(=O)c1ccc(O)cc1)C1(O)C(=O)Nc2c(Cl)cc(Cl)cc21` (stereo unspecified), the GI50 is 23.6 µM (inactive) in assay [1]; 70.5 µM (inactive) in [2]; > 89.7 µM (inactive) in assay [3]; > 92.5 µM (inactive) in assay [4]; > 84.9 µM (inactive) in assay [9]; 46.8 µM (inactive) in assay [6]. The values for the GI50 in [7] and in [8] were 26.9 µM (inactive) and 13.9 µM (inactive), respectively.

Consider `Cc1ccc(C2(O)CC(c3ccc([N+](=O)[O-])o3)=NN2C(=O)COc2ccccc2Cl)cc1` (stereo unspecified), for which the GI50 in assay [1] is 16.9 µM (inactive); in [2], 12.9 µM (inactive); in assay [3] it was 6.08 µM (inactive); in assay [4], 8.65 µM (inactive); in [5], 20.6 µM (inactive); in assay [9], 6.87 µM (inactive). Also, the values for the GI50 in [6], in assay [7] and in [8] were 42.6 µM (inactive), 6.59 µM (inactive) and 12.8 µM (inactive), respectively.

In the case of `COc1ccc2nc3c(C(=O)NCCN(C)C)cccc3nc2c1`, the GI50 was 4.42 µM (inactive) in assay [2], 27.7 µM (inactive) in [5], 7.16 µM (inactive) in [6] and 5.82 µM (inactive) in assay [8].

Turning to `N#Cc1c2nc3ccccc3nc2n2ccccc12`, the GI50 in assay [1], in assay [2], in assay [3], in [4], in [6] and in assay [7] was > 100 µM (inactive) throughout. Besides, in assay [8], the GI50 was > 100 µM (inactive).

Regarding `C#CCOCn1cnc2c(Sc3c([N+](=O)[O-])ncn3C)ncnc21`, the GI50 was > 100 µM (inactive) in assay [1]; > 100 µM (inactive) in assay [2]; > 100 µM (inactive) in assay [3]; > 100 µM (inactive) in [4]; > 100 µM (inactive) in assay [9]; 55.8 µM (inactive) in [7]. Moreover, the GI50 in assay [8] was > 100 µM (inactive).

Take `CC12OC3CC(O1)C1(C=O)C4CCC5(C)C(c6ccc(=O)oc6)CCC5(O)C4CCC1(C3)O2` (stereo unspecified): the GI50 in [2] is 0.0519 µM (active); in [3], 0.0995 µM (active); in assay [4], 0.298 µM (active); in assay [5], 0.252 µM (active); in assay [6], 0.131 µM (active); in [7], 0.139 µM (active). Further, the GI50 in [8] was 0.0414 µM (active).

In the case of `Cc1ccc(O)c(C(=O)CCCC(=O)c2cc(C)ccc2O)c1`, the GI50 in [1] is > 100 µM (inactive); in assay [2], 55.3 µM (inactive); in assay [3] it was > 100 µM (inactive); in [4] it was > 100 µM (inactive); in assay [5], > 100 µM (inactive); in assay [6] it was 55.8 µM (inactive). The results for the GI50 in assay [7] and in assay [8] were > 100 µM (inactive) and 32.9 µM (inactive), respectively.

For `CC1=C(/C=C/C(C)=C/C=C/C(C)=C/C(=O)O)C(C)(C)CCC1` [TRETINOIN], the GI50 in [1], in [2], in assay [3], in assay [4], in assay [5] and in [7] was > 100 µM (inactive) in each case. Further, the GI50 in [8] was > 100 µM (inactive).
